Entries after “also recorded” stand apart in the source; their conditions may differ. Where two headings read alike, the source gives them in different places.
Tests used:
HT-1080 cells = assay: Cellular dose response assay, HT-1080 with and without Fer-1; type: cell-based, human; conditions: for Selectivity: ferroptosis selectivity; for ferroptosis induction / potency in HT-1080 cells, result in words: RSL3 as control
Method in brief: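 Viability by CellTiter-Glo luminescence after 48 h exposure at 37 °C, 5% CO2. Compounds ran as 12-point 2-fold series, with or without Fer-1, in triplicate at 0.4% final DMSO, on cells plated at 1500/well the day before; SD from technical triplicates shown.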

GPX4 = target: T1, GPX4 (Homo sapiens, UniProt P36969); assay: GPX4 activity assay in cell lysates (NADPH-coupled); type: biochemical; parameters: endogenous in cells; host or cells: A-673 cell lysate
T1 sequence (P36969 1-170 isoform P36969-2): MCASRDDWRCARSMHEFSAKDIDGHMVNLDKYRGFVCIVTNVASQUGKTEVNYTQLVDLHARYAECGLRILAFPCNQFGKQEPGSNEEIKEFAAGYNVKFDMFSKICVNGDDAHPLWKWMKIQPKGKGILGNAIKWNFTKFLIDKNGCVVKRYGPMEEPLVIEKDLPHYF
Method in brief: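 Native GPX4 in lysates of A-673 cells grown with 20 nM sodium selenite; lysate preincubated with compound 45 min at 37 °C in pH 8.0 buffer with 3 mM GSH, 0.5 mM NADPH and glutathione reductase. Reaction started with phosphatidylcholine hydroperoxide; NADPH consumption followed at 340 nm over 25 min; triplicates.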

[1] = HT1080 + Fer-1, read-out: IC50 (uM) HT1080 + Fer-1
[2] = HT1080, without Fer-1, read-out: IC50 (uM) HT1080
[3] = with Fer-1, Table 10, read-out: IC50 (μM) HT1080 + Fer-1
[4] = without Fer-1, Table 10, read-out: IC50 (μM) HT1080
[5] = read-out: IC50 against HT1080 cell lines

Compound: Cn1nc(-n2cc(C(C)(C)COC(=O)CCl)nn2)c2ccc(-c3ccc(OC(F)(F)F)c(Cl)c3)cc21 [QW-677]
- IC50 (HT-1080 cells; [1]): 14 µM
- IC50 (HT-1080 cells; [2]): 1.65 µM
- Selectivity (HT-1080 cells; HT1080 + Fer-1 vs HT1080): 8.5
- GPX4% inhibition at 2.5 μM (GPX4; 2.5 μM): 33.6 ± 6.3%

Compound: C=CC(=O)OCC(C)(C)NC(=O)c1nn(Cc2ccc(Cl)cc2)c2cc(-c3ccc(OC)c(Cl)c3)ccc12 [QW-831]
- Selectivity (HT-1080 cells; IC50 with Fer-1 / IC50): 1.1
- IC50 (HT-1080 cells; [3]): 13 µM
- IC50 (HT-1080 cells; [4]): 12 µM
- GPX4% inhibition at 2.5 μM (GPX4; 2.5 μM, 4th generation): 32.6 ± 61.0%

Compound: COc1ccc(-c2ccc3c(C(=O)NC(C)(C)COC(=O)CCl)nn(Cc4ccc(C(F)(F)F)cc4)c3c2)cc1Cl [QW-873]
- Selectivity (HT-1080 cells; IC50 with Fer-1 / IC50): 3.4
- IC50 (HT-1080 cells; [3]): 26.8 µM
- IC50 (HT-1080 cells; [4]): 8 µM
- GPX4% inhibition at 2.5 μM (GPX4; 2.5 μM, 4th generation): 45.6 ± 39.7%

Compound: Cn1nc(C(=O)NC(C)(C)C(C)(C)OC(=O)CCl)c2ccc(-c3ccc(N4CCOCC4)c(Cl)c3)cc21 [QW-731]
- IC50 (HT-1080 cells; [1]): 2.8 µM
- IC50 (HT-1080 cells; [2]): 1.2 µM
- Selectivity (HT-1080 cells; HT1080 + Fer-1 vs HT1080): 2.3
- GPX4% inhibition at 2.5 μM (GPX4; 2.5 μM): 68.5 ± 9.4%

Compound: COc1ccc(-c2ccc3c(C(=O)NC(C)(C)C(C)(C)OC(=O)CCl)nn(Cc4ccc(Cl)cc4)c3c2)cc1Cl [QW-809]
- Selectivity (HT-1080 cells; IC50 with Fer-1 / IC50): 1.5
- IC50 (HT-1080 cells; [3]): 6.5 µM
- IC50 (HT-1080 cells; [4]): 4.2 µM
- GPX4% inhibition at 2.5 μM (GPX4; 2.5 μM, 4th generation): 34.6 ± 29.6%

Compound: CC(C)(COC(=O)CCl)NC(=O)c1nn(Cc2ccc(-c3ccc(N4CCOCC4)c(Cl)c3)cc2)c2cc(-c3ccc(N4CCOCC4)c(Cl)c3)ccc12 [QW-883]
- Selectivity (HT-1080 cells; IC50 with Fer-1 / IC50): 371.4
- IC50 (HT-1080 cells; [3]): 20.8 µM
- IC50 (HT-1080 cells; without Fer-1, Table 10, read-out: IC50 HT1080): 0.0564 µM
- GPX4% inhibition at 2.5 μM (GPX4; 2.5 μM, 4th generation): 41.1 ± 40.9%

Compound: COc1ccc(-c2cc(Cl)cc(Cn3nc(C(=O)NC(C)(C)COC(=O)CCl)c4ccc(-c5ccc(OC)c(Cl)c5)cc43)c2)cc1Cl [QW-853]
- Selectivity (HT-1080 cells; IC50 with Fer-1 / IC50): 56.8
- IC50 (HT-1080 cells; [3]): 21 µM
- IC50 (HT-1080 cells; [4]): 0.37 µM
- GPX4% inhibition at 2.5 μM (GPX4; 2.5 μM, 4th generation): 45.5 ± 34.3%

Compound: CC(C)Oc1ccc(-c2ccc3c(C(=O)NC(C)(C)COC(=O)CCl)nn(Cc4ccc(Cl)cc4)c3c2)cc1Cl [QW-841]
- ferroptosis induction / potency in HT-1080 cells, result in words (HT-1080 cells): outstanding cytotoxicity with sub-molar scale
- Selectivity (HT-1080 cells; IC50 with Fer-1 / IC50): 38.5
- IC50 (HT-1080 cells; [3]): 28.5 µM
- IC50 (HT-1080 cells; [4]): 0.74 µM
- GPX4% inhibition at 2.5 μM (GPX4; 2.5 μM, 4th generation): 91.3 ± 2.0%

Compound: COc1ccc(-c2ccc3c(C(=O)NC(C)(C)C(C)OC(=O)CCl)nn(C)c3c2)cc1Cl (racemic) [QW-736]
- IC50 (HT-1080 cells; [1]): 7.3 µM
- IC50 (HT-1080 cells; [2]): 3.7 µM
- Selectivity (HT-1080 cells; HT1080 + Fer-1 vs HT1080): 2.0
- GPX4% inhibition at 2.5 μM (GPX4; 2.5 μM): 95.3 ± 7.6%

Compound: CC(C)(COC(=O)CCl)NC(=O)c1nn(Cc2ccc(Cl)cc2)c2cc(-c3ccc(N4CCOCC4)c(Cl)c3)ccc12 [QW-824]
- ferroptosis induction / potency in HT-1080 cells, result in words (HT-1080 cells): good potency in cell and selectivity to GPX4; also recorded: outstanding cytotoxicity with sub-molar scale
- Selectivity (HT-1080 cells; IC50 with Fer-1 / IC50): >220
- IC50 (HT-1080 cells; [3]): > 40 µM
- IC50 (HT-1080 cells; [4]): 0.18 µM
- GPX4 inhibitory activity, result in words (GPX4): greater GPX4 inhibitory activity than QW-446
- GPX4% inhibition at 2.5 μM (GPX4; 2.5 μM, 4th generation): 90.5 ± 7.4%

Compound: Cn1nc(C(=O)NC(C)(C)COC(=O)CCl)c2ccc(-c3cc4ccccc4s3)cc21 [QW-470]
- IC50 (HT-1080 cells; [1]): 17.3 µM
- IC50 (HT-1080 cells; [2]): 1.7 µM
- Selectivity (HT-1080 cells; HT1080 + Fer-1 vs HT1080): 10.2
- GPX4% inhibition at 5 μM (GPX4; 5 μM): 75.0 ± 5.6%

Compound: COc1ccc(-c2ccc3c(C(=O)NC(C)(C)COC(=O)CCl)nn(Cc4cc(Cl)cc(Cl)c4)c3c2)cc1Cl [QW-851]
- fold change in potency in the cell viability assay, QW-851 vs QW-446 (HT-1080 cells; benzyl vs methyl on the indazole): 10 fold
- Selectivity (HT-1080 cells; IC50 with Fer-1 / IC50): >920
- IC50 (HT-1080 cells; [5]): 0.0435 µM
- IC50 (HT-1080 cells; [3]): > 40 µM
- GPX4 inhibitory activity, result in words (GPX4): greater GPX4 inhibitory activity than QW-446 at 2.5 μM concentration
- GPX4% inhibition at 2.5 μM (GPX4; 2.5 μM, 4th generation): 114.9 ± 23.5%

Compound: CC(C)Oc1ncc(-c2ccc3c(C(=O)NC(C)(C)COC(=O)CCl)nn(C)c3c2)cn1 [QW-716]
- IC50 (HT-1080 cells; [1]): 63 µM
- IC50 (HT-1080 cells; [2]): 1.6 µM
- ferroptosis induction / potency in HT-1080 cells, result in words (HT-1080 cells): more potent compared to RSL3
- Selectivity (HT-1080 cells; HT1080 + Fer-1 vs HT1080): 39.4
- GPX4 inhibitory activity, result in words (GPX4): substantially higher GPX4 inhibitory activities than QW-446
- GPX4% inhibition at 2.5 μM (GPX4; 2.5 μM): 86.4 ± 7.3%

Compound: COc1c(Cl)cc(-c2ccc3c(C(=O)NC(C)(C)C(C)(C)OC(=O)CCl)nn(C)c3c2)cc1C(F)(F)F [QW-813]
- IC50 (HT-1080 cells; [1]): 3 µM
- IC50 (HT-1080 cells; [2]): 2.1 µM
- Selectivity (HT-1080 cells; HT1080 + Fer-1 vs HT1080): 1.4
- GPX4% inhibition at 2.5 μM (GPX4; 2.5 μM): −17.0 ± 28.7%

Compound: Cn1nc(C(=O)NC(C)(C)COC(=O)CCl)c2ccc(-c3ccc(OC(C)(C)C)cc3)cc21 [QW-715]
- IC50 (HT-1080 cells; [1]): 24.1 µM
- IC50 (HT-1080 cells; [2]): 2.6 µM
- ferroptosis induction / potency in HT-1080 cells, result in words (HT-1080 cells): more potent compared to RSL3
- Selectivity (HT-1080 cells; HT1080 + Fer-1 vs HT1080): 9.3
- GPX4% inhibition at 2.5 μM (GPX4; 2.5 μM): 95.3 ± 7.6%
- GPX4 inhibition (GPX4; 2.5 μM): completely inhibited GPX4

Compound: COc1ccc(-c2ccc3c(C(=O)NC(C)(C)C(C)(C)OC(=O)CCl)nn(C)c3c2)cc1Br [QW-766]
- IC50 (HT-1080 cells; [1]): 2.5 µM
- IC50 (HT-1080 cells; [2]): 1.2 µM
- Selectivity (HT-1080 cells; HT1080 + Fer-1 vs HT1080): 2.1
- GPX4% inhibition at 2.5 μM (GPX4; 2.5 μM): −31.1 ± 29.6%

Compound: COc1ccc(-c2ccc3c(-n4cc(CCOC(=O)CCl)nn4)nn(C)c3c2)cc1Cl [QW-755]
- IC50 (HT-1080 cells; [1]): 23.9 µM
- IC50 (HT-1080 cells; [2]): 9.5 µM
- Selectivity (HT-1080 cells; HT1080 + Fer-1 vs HT1080): 2.5
- GPX4% inhibition at 2.5 μM (GPX4; 2.5 μM): 43.2 ± 14.9%

Compound: Cn1nc(-c2nnc(C(C)(OC(=O)CCl)C(F)(F)F)o2)c2ccc(-c3ccc4c(c3)OCO4)cc21 (centres unmarked) [QW-695]
- IC50 (HT-1080 cells; [1]): 14.4 µM
- IC50 (HT-1080 cells; [2]): 9.4 µM
- Selectivity (HT-1080 cells; HT1080 + Fer-1 vs HT1080): 1.5
- GPX4% inhibition at 2.5 μM (GPX4; 2.5 μM): −49.5 ± 28.5%

Compound: COc1ccc(-c2ccc3c(-n4cc(C(C)(C)CNC(=O)CCl)nn4)nn(C)c3c2)cc1Cl [QW-792]
- IC50 (HT-1080 cells; [1]): 5.8 µM
- IC50 (HT-1080 cells; [2]): 1.1 µM
- Selectivity (HT-1080 cells; HT1080 + Fer-1 vs HT1080): 5.3
- GPX4% inhibition at 2.5 μM (GPX4; 2.5 μM): −19.6 ± 18.2%

Compound: CC(C)Oc1ccc(-c2ccc3c(C(=O)NC(C)(C)COC(=O)CCl)nn(Cc4cc(Cl)cc(Cl)c4)c3c2)cc1Cl [QW-857]
- Selectivity (HT-1080 cells; IC50 with Fer-1 / IC50): >790
- IC50 (HT-1080 cells; [5]): 0.0506 µM
- IC50 (HT-1080 cells; [3]): > 40 µM
- GPX4 inhibitory activity, result in words (GPX4): greater GPX4 inhibitory activity than QW-446 at 2.5 μM concentration
- GPX4% inhibition at 2.5 μM (GPX4; 2.5 μM, 4th generation): 66.7 ± 26.2%

Compound: Cn1nc(C(=O)NC(C)(C)C(C)(C)OC(=O)CCl)c2ccc(-c3ccc(C(F)(F)F)c(Cl)c3)cc21 [QW-786]
- IC50 (HT-1080 cells; [1]): 5.8 µM
- IC50 (HT-1080 cells; [2]): 2.4 µM
- Selectivity (HT-1080 cells; HT1080 + Fer-1 vs HT1080): 2.6
- GPX4% inhibition at 2.5 μM (GPX4; 2.5 μM): 31.7 ± 19.5%

Compound: CC(C)(COC(=O)CCl)NC(=O)c1nn(Cc2ccc(C(F)(F)F)cc2)c2cc(-c3ccc(N4CCOCC4)c(Cl)c3)ccc12 [QW-874]
- Selectivity (HT-1080 cells; IC50 with Fer-1 / IC50): 1.7
- IC50 (HT-1080 cells; [3]): 49 µM
- IC50 (HT-1080 cells; [4]): 28.3 µM
- GPX4% inhibition at 2.5 μM (GPX4; 2.5 μM, 4th generation): 57.5 ± 24.5%
